Assay results from US5302611A, “Oxindole alkaloids having properties stimulating the immunologic system & preparation containing the same” (Keplinger; Klaus, priority 1980, dated 1994).

How the values were obtained:
[1] = system: ascites cells of Walker-250-carcinosarcoma; assay: Cytotoxicity test by the 3H-thymidine-incorporation test on ascites cells; type: cell-based, rats; conditions: Rattus norvegicus, read-out: mean value of the inhibition of 3H-thymidine incorporation
From the text: 5. Cytotoxicity test by the ^3 H-thymidine-incorporation test on ascites cells
Since in the granulocytic test some substances lyse the granulocytes at high concentrations we examined the cell-damaging effect at the model of the ^3 H-thymidine-incorporation test in ascites cells to be able to find a possible relation between the phagocytosis increase and cytotoxicity in potential active substances.
In this in-vitro-test system according to WEITZEL et al (H oppe-Seyler's Z. physiolog. Chem. 348, 433, 1967) the cytotoxicity of substances by inhibition of the DNA-synthesis of tumour cells can be numerically determined by the changed incorporation rates of ^3 H-thymidine in ascites cells of Walter-250-carcinos arcoma of rats.
The test was carried out as follows: 3 ml of cell suspension of Walker-250-carcinosarcoma-ascites were mixed with 10 ml of MEDIUM L-15 (Boehringer) in a 50 ml centrifugal glass and centrifugated for 10 minutes. The supernatant was decanted and the centrifugal glass was filled up with medium to 1 cm below the rim. From the stirred cell suspension 1 ml (corresponds to 2×10^6 cells/ml) per sample was given into a centrifugal glass and 500 μl of the test solution were added, the control test was carried out with 500 μl of medium. […] The filters were given in polyethylene flasks and the activities were measured in toluene-scintillator. […]

macrophage-phagocytosis = conditions: concentrations of 10^-4 % and 10^-5 %; cited from earlier work
[2] = system: neutrophil granulocytes (PMNL); assay: Granulocytic test modified after BRANDT (phagocytosis of yeast particles); type: cell-based, human; conditions: up to dilutions of 10^-6 %
From the text: 1. […] They represent about 60-70% of all leucocytes in the human blood. The phagocytosis effect of all these granulocytes can be measured in vitro according to a method developed by BRAND (Scand. J. Haematol. Suppl. 2, 1967) and modified by TYMPNER (Munich Med. Weekly 8, 251, 1978).
A granulocytic fraction is taken from the blood of healthy probands (PMNL--abbreviation of polymorphonuclearleucocytes)
This PMNL-fraction mainly consists of neutrophil granulocytes and few eosinophil and basophil granulocytes as well as of lymphocytes, monocytes and thrombocytes. After addition of a defined amount of yeast cells (Saccharomyces cerevisiae) and the substance to be tested incubation is carried out for 10 minutes at 37° C., the suspension is spread on an object carrier and incubated at room temperature for further 35 minutes. Then the spreads are coloured and microscopically evaluated. 100 PMNL-cells are selected per object carrier, and it is determined how many yeast particles of the individual cells have been phagocytised. The phagocytosis index indicates the average number of phagocytised yeast particles.
15 ml of heparinised venous blood of clinically healthy adults was diluted with 1.5% of dextran T 500 (Pharmacia) 2:1 and allowed to stand at room temperature for 30 minutes. The supernatant containing leucocytes was injected into a sterile plastic tube and centrifugated for 7 minutes at 500 r.p.m. The granulocytes in the deposit were washed twice with 5 ml of PPM I-buffer in each case. Then the granulocytes were suspended in about 5 ml of buffer and adjusted in the Neubauer's chamber to a concentration of 5×10^6 cells/ml.
Yeast suspended in 0.9% of NaCl was heated to 100° C., three times filtered through gaze and adjusted to 3-5×10^7 particles/ml.
The serum of 5 clinically healthy adults was mixed and frozen in portions of 5 ml. For the test dilution was carried out with 0.9% of NaCl 1:10.
The test was carried out as follows: 0.2 ml of substance dissolved in 0.9% of NaCl and 0.2 ml of 0.9% NaCl, as a control substance, were pipetted to 0.2 ml, each, of pool serum, granulocyte- and yeast suspension and first incubated for 10 minutes at 37° C. Then 0.5 ml of each preparation were applied to an object carrier and incubated in a humid chamber at room temperature for further 35 minutes. Granulocytes deposited, the supernatant was carefully washed with 0.9% of NaCl, and the object carrier was dried with a dryer.
100 granulocytes were counted out per object carrier, and it was determined how many yeast particles of the individual cells had been phagocytised. The phagocytosis index (PJ) indicates the average number of yeast particles per granulocyte. The increase (S) of the phagocytosis activity in the blank value was calculated according to: [formula]

Structure (SMILES)	inhibition at 2000 µg/mL [1]	in-vitro-inhibition of the macrophage-phagocytosis (macrophage-phagocytosis)	effect in the granulocytic test [2]
CN(Cc1cnc2nc(N)nc(N)c2n1)c1ccc(C(=O)N[C@@H](CCC(=O)O)C(=O)O)cc1 [Methotrexat®, N-[4-[[(2,4-Diamino-6-pteridinyl)methyl]methylamino]benzoyl]-L-glutamic acid]	43%	–	–
CC[C@]1(O)C[C@H]2CN(CCc3c([nH]c4ccccc34)[C@@](C(=O)OC)(c3cc4c(cc3OC)N(C=O)[C@H]3[C@@](O)(C(=O)OC)[C@H](OC(C)=O)[C@]5(CC)C=CCN6CC[C@]43[C@@H]65)C2)C1 [vincristine, reference compound]	–	in-vitro-inhibitionof the macrophage-phagocytosis has been found	no effects have been found
